The text below walks through data of article PMC4304192, “KUD773, a phenylthiazole derivative, displays anticancer activity in human hormone-refractory prostate cancers through inhibition of tubulin polymerization and anti-Aurora A activity” (Journal of Biomedical Science, 2015).

As usually defined, the IC50 is the concentration needed to halve the response being measured.

This test concerns the target T1, Aurora A kinase (Homo sapiens, UniProt O14965).
T1 construct: gene AURKA
T1 sequence (O14965 1-403): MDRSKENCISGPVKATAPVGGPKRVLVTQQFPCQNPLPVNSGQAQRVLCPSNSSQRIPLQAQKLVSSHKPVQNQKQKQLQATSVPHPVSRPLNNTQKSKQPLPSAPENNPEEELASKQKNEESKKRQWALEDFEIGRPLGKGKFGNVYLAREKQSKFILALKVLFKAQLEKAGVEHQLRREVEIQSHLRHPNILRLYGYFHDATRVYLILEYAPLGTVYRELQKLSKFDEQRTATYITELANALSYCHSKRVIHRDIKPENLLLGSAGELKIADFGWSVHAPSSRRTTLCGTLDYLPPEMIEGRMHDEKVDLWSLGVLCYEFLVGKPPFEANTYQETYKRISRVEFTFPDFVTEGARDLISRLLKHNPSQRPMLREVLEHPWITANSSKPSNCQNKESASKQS
Briefly: Aurora A luminescent kinase assay (Kinase-Glo Plus, […] ATP, LRRWSLG peptide substrate). Format: biochemical. In general terms: In Kinase-Glo more light means more ATP remaining.

SMILES strings stand for the structures.

As to `FC(F)(F)c1cccc(-c2csc(-n3ccnc3)n2)c1` [KUD773, 2-(1H-imidazol-1-yl)-4-(3-(trifluoromethyl)phenyl)thiazole], the IC50 came to 30 µM.
